According to PubChem BioAssay (NCI):
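96-well plates; 48 h exposure; 5 concentrations. Endpoints by linear interpolation between flanking doses. Not reached: highest tested concentration assigned. At the GI50, growth is halved. TGI marks complete inhibition of growth.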

How the values were obtained:
Assay in all cases: DTP human tumour cell line panel, 48 h
[1] = test system: 786-0 renal
[2] = test system: A498 renal
[3] = test system: ACHN renal
[4] = test system: BT-549 breast
[5] = test system: CAKI-1 renal
[6] = test system: DU-145 prostate
[7] = test system: EKVX NSCLC
[8] = test system: HCC-2998 colon
[9] = test system: HCT-116 colon
[10] = test system: HCT-15 colon
[11] = test system: HL-60(TB) leukemia
[12] = test system: HOP-62 NSCLC
[13] = test system: HOP-92 NSCLC
[14] = test system: IGROV1 ovarian
[15] = test system: K-562 leukemia
[16] = test system: LOX IMVI melanoma
[17] = test system: M14 melanoma
[18] = test system: MALME-3M melanoma
[19] = test system: MDA-MB-231 breast
[20] = test system: MDA-MB-435
[21] = test system: NCI-H522 lung
[22] = test system: OVCAR-3 ovarian
[23] = test system: OVCAR-4 ovarian
[24] = test system: OVCAR-5 ovarian
[25] = test system: PC-3 prostate
[26] = test system: RXF 393 renal
[27] = test system: SF-268 CNS
[28] = test system: SF-295 CNS
[29] = test system: SF-539 CNS
[30] = test system: SK-MEL-2 melanoma
[31] = test system: SK-MEL-28 melanoma
[32] = test system: SK-MEL-5 melanoma
[33] = test system: SK-OV-3 ovarian
[34] = test system: SN12C renal
[35] = test system: SNB-19 CNS
[36] = test system: SNB-75 CNS
[37] = test system: SR leukemia
[38] = test system: T-47D breast
[39] = test system: TK-10 renal
[40] = test system: U251 CNS
[41] = test system: UACC-257 melanoma
[42] = test system: UACC-62 melanoma
[43] = test system: UO-31 renal
[44] = test system: A549 NSCLC
[45] = test system: CCRF-CEM leukemia
[46] = test system: COLO 205 colon
[47] = test system: HT29 colon
[48] = test system: KM12 colon
[49] = test system: MCF7 breast
[50] = test system: MOLT-4 leukemia
[51] = test system: NCI-H226 lung
[52] = test system: NCI-H23 lung
[53] = test system: NCI-H460 lung
[54] = test system: NCI/ADR-RES ovarian
[55] = test system: OVCAR-8 ovarian
[56] = test system: RPMI-8226 leukemia
[57] = test system: SW-620 colon

`Cc1nnc([S-])o1.[Au+].c1ccc([PH+](c2ccccc2)c2ccccc2)cc1` gave a GI50 [1] of 1640 nM, a TGI [1] of 3000 nM and a GI50 [2] of 1570 nM. The TGI [2] was 2930 nM, the GI50 [3] was 1710 nM and the TGI [3] was 3080 nM. It also gave a GI50 [4] of 1580 nM, a TGI [4] of 2950 nM and a GI50 [5] of 1470 nM. The TGI [5] was 2800 nM, the GI50 [6] was 1750 nM and the TGI [6] was 3260 nM. For the same compound, the GI50 [7] was 1810 nM, the TGI [7] was 3240 nM and the GI50 [8] was 1820 nM. The TGI [8] was 3270 nM, the GI50 [9] was 1600 nM and the TGI [9] was 3010 nM. It also gave a GI50 [10] of 1490 nM, a TGI [10] of 3080 nM and a GI50 [11] of 2990 nM. It also gave a TGI [11] of 9120 nM, a GI50 [12] of 1870 nM and a TGI [12] of 3530 nM. It also gave a GI50 [13] of 1640 nM, a TGI [13] of 3030 nM and a GI50 [14] of 1470 nM. For the same compound, the TGI [14] was 2820 nM, the GI50 [15] was 2380 nM and the TGI [15] was over 100000 nM. For the same compound, the GI50 [16] was 1630 nM, the TGI [16] was 3000 nM and the GI50 [17] was 1790 nM. For the same compound, the TGI [17] was 3340 nM, the GI50 [18] was 1600 nM and the TGI [18] was 3060 nM. For the same compound, the GI50 [19] was 1680 nM, the TGI [19] was 3110 nM and the GI50 [20] was 1620 nM. For the same compound, the TGI [20] was 3020 nM, the GI50 [21] was 595 nM and the TGI [21] was 2030 nM. For the same compound, the GI50 [22] was 1610 nM, the TGI [22] was 2980 nM and the GI50 [23] was 1590 nM. It also gave a TGI [23] of 2950 nM, a GI50 [24] of 1820 nM and a TGI [24] of 3270 nM. It also gave a GI50 [25] of 1590 nM, a TGI [25] of 3070 nM and a GI50 [26] of 1240 nM. For the same compound, the TGI [26] was 2510 nM, the GI50 [27] was 1620 nM and the TGI [27] was 3310 nM. It also gave a GI50 [28] of 1890 nM, a TGI [28] of 3500 nM and a GI50 [29] of 1630 nM. For the same compound, the TGI [29] was 2990 nM, the GI50 [30] was 1720 nM and the TGI [30] was 3240 nM. For the same compound, the GI50 [31] was 1510 nM, the TGI [31] was 2860 nM and the GI50 [32] was 1550 nM. It also gave a TGI [32] of 2940 nM, a GI50 [33] of 2280 nM and a TGI [33] of 4170 nM. The GI50 [34] was 1670 nM, the TGI [34] was 3070 nM and the GI50 [35] was 1610 nM. The TGI [35] was 2980 nM, the GI50 [36] was 1320 nM and the TGI [36] was 2600 nM. The GI50 [37] was 1210 nM, the TGI [37] was over 100000 nM and the GI50 [38] was 1870 nM. For the same compound, the TGI [38] was 4930 nM, the GI50 [39] was 1800 nM and the TGI [39] was 3210 nM. The GI50 [40] was 1500 nM, the TGI [40] was 2860 nM and the GI50 [41] was 1570 nM. It also gave a TGI [41] of 3110 nM, a GI50 [42] of 1350 nM and a TGI [42] of 2700 nM. The GI50 [43] was 1660 nM and the TGI [43] was 3020 nM.
Compound `CCOC(=O)c1c2c(n(Cc3ccc(Cl)cc3Cl)c1C)-c1nc(Cc3ccccc3)[nH]c1C(=O)C2=O` has a GI50 [1] of 1820 nM, a TGI [1] of 3470 nM and a GI50 [44] of 3840 nM. It also gave a TGI [44] of over 100000 nM, a GI50 [3] of 1750 nM and a TGI [3] of 3170 nM. For the same compound, the GI50 [4] was 2070 nM, the TGI [4] was 3870 nM and the GI50 [5] was 2310 nM. For the same compound, the TGI [5] was 4010 nM, the GI50 [45] was 1810 nM and the TGI [45] was 4450 nM. The GI50 [46] was 2420 nM, the TGI [46] was 5850 nM and the GI50 [6] was 1780 nM. For the same compound, the TGI [6] was 3300 nM, the GI50 [7] was 2240 nM and the TGI [7] was 4490 nM. It also gave a GI50 [8] of 1930 nM, a TGI [8] of 3780 nM and a GI50 [9] of 1680 nM. For the same compound, the TGI [9] was 3070 nM, the GI50 [10] was 2150 nM and the TGI [10] was 4640 nM. It also gave a GI50 [11] of 1570 nM, a TGI [11] of 3710 nM and a GI50 [12] of 2320 nM. The TGI [12] was 5480 nM, the GI50 [13] was 1620 nM and the TGI [13] was 3060 nM. The GI50 [47] was 2720 nM, the TGI [47] was 8610 nM and the GI50 [14] was 2310 nM. For the same compound, the TGI [14] was 5070 nM, the GI50 [15] was 1970 nM and the TGI [15] was 5250 nM. The GI50 [48] was 1470 nM, the TGI [48] was 2890 nM and the GI50 [17] was 2300 nM. It also gave a TGI [17] of 5050 nM, a GI50 [18] of 2000 nM and a TGI [18] of 3660 nM. For the same compound, the GI50 [49] was 2550 nM, the TGI [49] was 6080 nM and the GI50 [19] was 1930 nM. For the same compound, the TGI [19] was 3560 nM, the GI50 [20] was 1990 nM and the TGI [20] was 3750 nM. It also gave a GI50 [50] of 1940 nM, a TGI [50] of 4870 nM and a GI50 [51] of 2190 nM. It also gave a TGI [51] of 4680 nM, a GI50 [52] of 2030 nM and a TGI [52] of 4290 nM. The GI50 [53] was 2270 nM, the TGI [53] was 4900 nM and the GI50 [21] was 2200 nM. It also gave a TGI [21] of 4680 nM, a GI50 [54] of 3190 nM and a TGI [54] of 10600 nM. For the same compound, the GI50 [22] was 1800 nM, the TGI [22] was 3600 nM and the GI50 [23] was 1870 nM. It also gave a TGI [23] of 4800 nM, a GI50 [24] of 2250 nM and a TGI [24] of 4560 nM. The GI50 [55] was 3490 nM, the TGI [55] was 50400 nM and the GI50 [25] was 1920 nM. The TGI [25] was 4900 nM, the GI50 [56] was 2250 nM and the TGI [56] was 4650 nM. It also gave a GI50 [27] of 1940 nM, a TGI [27] of 4280 nM and a GI50 [28] of 1990 nM. It also gave a TGI [28] of 4590 nM, a GI50 [29] of 2140 nM and a TGI [29] of 3970 nM. For the same compound, the GI50 [30] was 2830 nM, the TGI [30] was 9200 nM and the GI50 [31] was 1690 nM. It also gave a TGI [31] of 3300 nM, a GI50 [32] of 1800 nM and a TGI [32] of 3270 nM. The GI50 [33] was 5020 nM, the TGI [33] was 19300 nM and the GI50 [34] was 2220 nM. For the same compound, the TGI [34] was 4750 nM, the GI50 [35] was 3510 nM and the TGI [35] was 45200 nM. It also gave a GI50 [36] of 1880 nM, a TGI [36] of 3630 nM and a GI50 [37] of 1780 nM. It also gave a TGI [37] of 3820 nM, a GI50 [57] of 2110 nM and a TGI [57] of 4070 nM. It also gave a GI50 [38] of 2650 nM, a TGI [38] of 33300 nM and a GI50 [39] of 2120 nM. For the same compound, the TGI [39] was 3650 nM, the GI50 [40] was 2110 nM and the TGI [40] was 4620 nM. It also gave a GI50 [42] of 1820 nM and a TGI [42] of 3480 nM.
